Source: ChEMBL document CHEMBL1122063, “Renin inhibitors. Substitution of the leucyl residues of Leu-Leu-Val-Phe-OCH3 with 3-amino-2-hydroxy-5-methylhexanoic acid” (J Med Chem, 1982)
pKi: −log10 of the molar value.

Biological target: T1, Renin (Homo sapiens, UniProt P00797)
T1 sequence (P00797 whole entry): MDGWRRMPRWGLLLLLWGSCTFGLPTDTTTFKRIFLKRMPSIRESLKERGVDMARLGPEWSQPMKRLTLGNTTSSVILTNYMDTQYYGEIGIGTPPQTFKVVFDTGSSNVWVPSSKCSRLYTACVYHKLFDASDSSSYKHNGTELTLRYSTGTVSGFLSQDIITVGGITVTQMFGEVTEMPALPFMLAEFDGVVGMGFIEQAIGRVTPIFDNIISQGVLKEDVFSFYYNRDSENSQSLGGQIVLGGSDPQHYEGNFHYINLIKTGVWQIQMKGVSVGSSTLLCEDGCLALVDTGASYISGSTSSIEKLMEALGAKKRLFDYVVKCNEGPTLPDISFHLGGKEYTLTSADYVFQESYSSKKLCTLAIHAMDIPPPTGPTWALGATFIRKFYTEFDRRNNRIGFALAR
Assay: Competitive inhibition of renin from human amniotic […]

SMILES	pKi
COC(=O)[C@H](Cc1ccccc1)NC(=O)[C@@H](NC(=O)[C@H](O)[C@@H](N)CC(C)C)C(C)C	3.00
COC(=O)[C@H](Cc1ccccc1)NC(=O)[C@@H](NC(=O)[C@H](O)[C@@H](N)CC(C)CC(=O)[C@@H](N)CC(C)C)C(C)C (stereo partly specified)	3.36
COC(=O)[C@H](Cc1ccccc1)NC(=O)[C@@H](NC(=O)[C@@H](CC(C)C)NC(=O)[C@H](O)[C@@H](N)CC(C)C)C(C)C	2.82

More lines, in order of rising pKi, values ahead:

pKi	SMILES
2.61	COC(=O)[C@H](Cc1ccccc1)NC(=O)[C@@H](NC(=O)[C@@H](O)[C@@H](N)CC(C)C)C(C)C
3.02	COC(=O)[C@H](Cc1ccccc1)NC(=O)[C@@H](NC(=O)[C@H](CC(C)C)NC(=O)[C@@H](O)[C@@H](N)CC(C)C)C(C)C
3.28	COC(=O)[C@H](Cc1ccccc1)NC(=O)[C@@H](NC(=O)[C@@H](O)[C@@H](N)CC(C)CC(=O)[C@@H](N)CC(C)C)C(C)C (stereo partly specified)
